Experimental data as given in paper PMC8169660, “Flavin-dependent halogenases catalyze enantioselective olefin halocyclization” (Nature Communications, 2021).

Biological target: T1, RebH variant 4V + S (Lentzea aerocolonigenes, UniProt Q8KHZ8, F111S/N470S, form not given)
T1 construct: evolved RebH variant 4V + S; pET28b in E. coli BL21(DE3) + pGro7, Ni-NTA purified (His-tagged)
Assay: initial rates of bromolactonization, product 1a by UPLC
Assay type: biochemical
Settings: NaBr (5 eq), NAD and FAD 100 uM, MBP-RebF 2.5 uM, glucose dehydrogenase, glucose 20 mM; 4V + S 20 uM; room temperature

T1 sequence (Q8KHZ8 whole entry F111S/N470S, form open): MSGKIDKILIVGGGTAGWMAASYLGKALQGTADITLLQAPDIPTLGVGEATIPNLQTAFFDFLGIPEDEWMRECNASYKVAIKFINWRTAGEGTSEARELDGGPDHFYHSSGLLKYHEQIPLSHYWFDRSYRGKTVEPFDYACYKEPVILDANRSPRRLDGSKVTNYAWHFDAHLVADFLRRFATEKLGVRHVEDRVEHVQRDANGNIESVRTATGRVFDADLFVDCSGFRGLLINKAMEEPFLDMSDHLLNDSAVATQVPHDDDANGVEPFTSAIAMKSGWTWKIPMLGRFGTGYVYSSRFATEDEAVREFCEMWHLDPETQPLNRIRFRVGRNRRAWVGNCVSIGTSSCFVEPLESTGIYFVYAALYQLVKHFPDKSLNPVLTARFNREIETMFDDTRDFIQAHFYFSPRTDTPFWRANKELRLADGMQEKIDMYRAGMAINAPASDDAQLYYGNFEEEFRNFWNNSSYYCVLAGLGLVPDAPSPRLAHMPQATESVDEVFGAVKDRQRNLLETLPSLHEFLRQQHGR

- Km: 470 µM
SMILES: C=C(CCC(=O)O)c1ccc(OC)cc1 [compound 1, 4-methoxyphenyl-4-pentenoic acid]
